Experimental data published in patent publication US5047431A, “1,1,2-triphenylbut-1-ene derivatives” (Klinge Pharma GmbH & Co., priority 1980, dated 1991).
Entries after “also recorded” stand apart in the source; their conditions may differ.

Experiments:
[1] = background art; cited from earlier work
[2] = system: hormone-dependent mammary; details: background art; cited from earlier work
estradiol receptor = target: T1, estradiol receptor (Oryctolagus cuniculus, UniProt G1SML6); experiment: Binding affinity to the estradiol receptor (displacement of [3H]-estradiol from uterus cytosol); design: species or system rabbit (New Zealand rabbits); details: uterus cytosol of prepuberal rabbits, 18 hours at 4° C., 2.5×10^-9 M [3H]-estradiol; read-out: ED50% (concentration of the substance which replaces 50% [3H]-estradiol from the estradiol receptor)
T1 construct: The uterus cytosol of female, prepuberal white rabbits; from tissue; host or cells: uterus cytosol of female prepuberal New Zealand white rabbits
T1 sequence (G1SML6 1-598): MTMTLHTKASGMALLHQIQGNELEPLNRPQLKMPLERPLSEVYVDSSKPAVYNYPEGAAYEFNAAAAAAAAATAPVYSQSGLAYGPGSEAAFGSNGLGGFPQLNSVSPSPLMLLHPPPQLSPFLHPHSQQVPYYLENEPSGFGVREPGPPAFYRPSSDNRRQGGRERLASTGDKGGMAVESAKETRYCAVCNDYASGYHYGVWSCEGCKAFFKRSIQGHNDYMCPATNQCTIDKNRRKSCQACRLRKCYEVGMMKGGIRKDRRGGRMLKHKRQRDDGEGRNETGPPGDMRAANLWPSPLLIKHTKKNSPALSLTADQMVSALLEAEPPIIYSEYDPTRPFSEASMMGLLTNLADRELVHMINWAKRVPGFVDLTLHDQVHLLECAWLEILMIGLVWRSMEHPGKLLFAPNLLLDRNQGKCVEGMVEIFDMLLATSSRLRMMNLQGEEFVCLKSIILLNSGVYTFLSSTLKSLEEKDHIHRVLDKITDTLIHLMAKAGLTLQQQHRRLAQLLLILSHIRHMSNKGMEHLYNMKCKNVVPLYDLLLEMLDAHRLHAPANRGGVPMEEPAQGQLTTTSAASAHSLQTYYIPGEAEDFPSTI
Procedure: The determination of the binding affinity to the estradiol receptor was made using rabbit uterus cytosol.
The binding affinity to the estradiol receptor was measured according to the method of N. Devleeschouwer, G. Leclercq, A. Danguy and J.C. Heuson [Europ.
H]-estradiol from the estradiol receptor.

[3] = system: 7,12-dimethylbenz(a)anthracene-induced mammary tumor; experiment: Inhibitory effect on the 7,12-dimethylbenz(a)anthracene-induced mammary tumor; format: in vivo, female Sprague-Dawley rat (Hanover breed); details: compared with tamoxifen under the same test conditions

SMILES	IC50 (estradiol receptor) [nM]	anti-estrogenic activity (in words) [1]	therapy of hormone-dependent mammary tumors (in words) [2]	inhibitory activity on the mammary tumor (in words) [3]
CC/C(=C(\c1ccccc1)c1ccc(OCCN(C)C)cc1)c1ccccc1 [Tamoxifen, (Z)-1-[4'-(2-dimethylaminoethoxy)phenyl]-1,2-diphenylbut-1-ene]		marked anti-estrogenic activity	already proved successful in the therapy of hormone-dependent mammary	
CC/C(=C(/c1ccc(OCCN(C)C)cc1)c1cccc(O)c1)c1ccccc1 [Compound 1, (E)-1-[4'-(2-Dimethylaminoethoxy)phenyl]-1-(3-hydroxyphenyl)-2-phenylbut-1-ene]	24			above the activity of tamoxifen; also recorded: clearly superior to tamoxifen in the inhibitory activity on the tumor
CC/C(=C(\c1ccc(O)cc1)c1ccc(OCCN(C)C)cc1)c1ccccc1 [4-hydroxytamoxifen]		antiestrogenic effect comparable to tamoxifen		

Now from value to compound, other results behind:

IC50 (estradiol receptor) [nM]	SMILES	anti-estrogenic activity (in words) [1]	therapy of hormone-dependent mammary tumors (in words) [2]	inhibitory activity on the mammary tumor (in words) [3]
37	CC/C(=C(/c1ccc(OCCNC)cc1)c1cccc(O)c1)c1ccccc1 [Compound 3, (E)-1-(3'-Hydroxyphenyl)-1-[4'-(2-methylaminoethoxy)phenyl]-2-phenylbut-1-ene]			
65	CC/C(=C(/c1ccc(OCCN(CC)CC)cc1)c1cccc(O)c1)c1ccccc1 [Compound 2, (E)-1-[4'-(2-Diethylaminoethoy)phenyl]-1-(3'-hydroxyphenyl)-2-phenylbut-1-ene]			
